Measured values taken from paper PMC9220351, “Evaluation of a Conformationally Constrained Indole Carboxamide as a Potential Efflux Pump Inhibitor in Pseudomonas aeruginosa” (Antibiotics, 2022).

Tested on: 34 MDR P. aeruginosa clinical isolates (CDC & FDA AR Isolate Bank)
Assay: microbe, parasite or virus in culture
Format: cell-based, Pseudomonas aeruginosa
Settings: for Levofloxacin MIC fold difference: + labelled EPI […] (TXA09155 head: 50 µg/mL); for Levofloxacin MIC: alone or + labelled EPI […] (TXA09155 head: 50 µg/mL)
Text: P. aeruginosa ATCC 27853 was obtained from the American Type Culture Collection (ATCC; Manassas, VA, USA). P. aeruginosa multidrug-resistant isolates were obtained from the CDC and FDA Antibiotic Resistance Isolate Bank (Atlanta, GA, USA). P. aeruginosa DA7232 (gyrA-T83I, parC-S80L) was a kind gift from Prof. Dan I. Andersson, Uppsala University, Uppsala, Sweden, and has been characterized elsewhere. P. aeruginosa strains K767 (WT), K1455 (mexAB-oprM overexpressed), K2415 (mexXY-oprM overexpressed), and K3698 (oprM∆) were obtained from Prof. Keith Poole, Queen’s University, Kingston, Ontario, Canada and have been characterized elsewhere. Bacterial cells were grown in cation-adjusted Mueller Hinton (CAMH) media, brain heart infusion broth (BHI), or tryptic soy agar (TSA) plates were all obtained from Becton, Dickinson, and Company (BD; Franklin Lakes, NJ, USA). […] Azithromycin was purchased from Tokyo Chemical Industry (Portland, OR, USA). […] Ethidium bromide (EtBr) and glucose were purchased from VWR (Radnor, PA, USA). MC-04,124 and TXA01182 were synthesized at TAXIS Pharmaceuticals. Carbonyl cyanide 3-chlorophenylhydrazone (CCCP) was purchased from Enzo Life Sciences (Farmingdale, NY, USA). DiOC2 (3) and propidium iodide were obtained from Thermo Fisher Scientific (Waltham, MA, USA).
MIC assays were performed as described previously.

NCCC[C@H](N)CNC(=O)c1cc2ccc(-c3ccc(F)cc3)cc2[nH]1 [TXA01182]
Levofloxacin MIC fold difference (strain AR-0229): 8
Levofloxacin MIC (strain AR-0229): 8 µg/mL
Levofloxacin MIC fold difference (strain AR-0230): 4
Levofloxacin MIC (strain AR-0230): 16 µg/mL
Levofloxacin MIC fold difference (strain AR-0231): 2
Levofloxacin MIC (strain AR-0231): 32 µg/mL
Levofloxacin MIC fold difference (strain AR-0232): 8
Levofloxacin MIC (strain AR-0232): 1 µg/mL
Levofloxacin MIC fold difference (strain AR-0233): 8
Levofloxacin MIC (strain AR-0233): 0.5 µg/mL
Levofloxacin MIC fold difference (strain AR-0234): 8
Levofloxacin MIC (strain AR-0234): 1 µg/mL
Levofloxacin MIC fold difference (strain AR-0236): 4
Levofloxacin MIC (strain AR-0236): 8 µg/mL
Levofloxacin MIC fold difference (strain AR-0239): 8
Levofloxacin MIC (strain AR-0239): 8 µg/mL
Levofloxacin MIC fold difference (strain AR-0240): 8
Levofloxacin MIC (strain AR-0240): 16 µg/mL
Levofloxacin MIC fold difference (strain AR-0241): 4
Levofloxacin MIC (strain AR-0241): 16 µg/mL
Levofloxacin MIC fold difference (strain AR-0242): 8
Levofloxacin MIC (strain AR-0242): 2 µg/mL
Levofloxacin MIC fold difference (strain AR-0244): 16
Levofloxacin MIC (strain AR-0244): 8 µg/mL
Levofloxacin MIC fold difference (strain AR-0245): 4
Levofloxacin MIC (strain AR-0245): 32 µg/mL
Levofloxacin MIC fold difference (strain AR-0246): 4
Levofloxacin MIC (strain AR-0246): 16 µg/mL
Levofloxacin MIC fold difference (strain AR-0247): 64
Levofloxacin MIC (strain AR-0247): 0.031 µg/mL
Levofloxacin MIC fold difference (strain AR-0248): 8
Levofloxacin MIC (strain AR-0248): 2 µg/mL
Levofloxacin MIC fold difference (strain AR-0249): 8
Levofloxacin MIC (strain AR-0249): 8 µg/mL
Levofloxacin MIC fold difference (strain AR-0250): 4
Levofloxacin MIC (strain AR-0250): 16 µg/mL
Levofloxacin MIC fold difference (strain AR-0252): 16
Levofloxacin MIC (strain AR-0252): 2 µg/mL
Levofloxacin MIC fold difference (strain AR-0253): 16
Levofloxacin MIC (strain AR-0253): 0.125 µg/mL
Levofloxacin MIC fold difference (strain AR-0256): 8
Levofloxacin MIC (strain AR-0256): 0.062 µg/mL
Levofloxacin MIC fold difference (strain AR-0258): 4
Levofloxacin MIC (strain AR-0258): 0.125 µg/mL
Levofloxacin MIC fold difference (strain AR-0259): 1
Levofloxacin MIC (strain AR-0259): 0.125 µg/mL
Levofloxacin MIC fold difference (strain AR-0260): 4
Levofloxacin MIC (strain AR-0260): 16 µg/mL
Levofloxacin MIC fold difference (strain AR-0261): 16
Levofloxacin MIC (strain AR-0261): 0.5 µg/mL
Levofloxacin MIC fold difference (strain AR-0262): 16
Levofloxacin MIC (strain AR-0262): 0.25 µg/mL
Levofloxacin MIC fold difference (strain AR-0264): 8
Levofloxacin MIC (strain AR-0264): 4 µg/mL
Levofloxacin MIC fold difference (strain AR-0265): 8
Levofloxacin MIC (strain AR-0265): 8 µg/mL
Levofloxacin MIC fold difference (strain AR-0266): 4
Levofloxacin MIC (strain AR-0266): 8 µg/mL
Levofloxacin MIC fold difference (strain AR-0267): 16
Levofloxacin MIC (strain AR-0267): 2 µg/mL
Levofloxacin MIC fold difference (strain AR-0269): 8
Levofloxacin MIC (strain AR-0269): 4 µg/mL
Levofloxacin MIC fold difference (strain AR-0270): 16
Levofloxacin MIC (strain AR-0270): 2 µg/mL
Levofloxacin MIC fold difference (strain AR-0271): 4
Levofloxacin MIC (strain AR-0271): 8 µg/mL
Levofloxacin MIC fold difference (strain AR-0272): 4
Levofloxacin MIC (strain AR-0272): 4 µg/mL
